Measurements taken from patent US8952192B2, “Phosphorylated and branched dihydroxy-pentane-dione (DPD) analogs as quorum sensing inhibitors in bacteria” (University of Maryland, College Park, priority 2011, dated 2015).

What was measured:
P. aeruginosa PAO1 = experiment: Tri-species synthetic ecosystem (E. coli, S. typhimurium, P. aeruginosa): pyocyanin production; format: cell-based; settings: tri-species culture, 40 μM analog, no exogenous AI-2, 24 h
Description: Effect of analogs in a tri-species synthetic ecosystem. […] Isobutyl-DPD (40 μM) and phenyl-DPD (40 μM) were added to a tri-species synthetic ecosystem created by culturing E. coli, S. typhimurium and P. aeruginosa in the same tubes. In order to differentiate and monitor the QS response from each organism, different and orthogonal reporter strains were used; in E. coli, AI-2 mediated dsRED expression, in S. typhimurium, AI-2 mediated β-galactosidase production; and in P. aeruginosa effects of AI-2 were examined for pyocyanin production.
S. typhimurium MET708, P. aeruginosa PAO1 and E. coli W3110 pCT6 dsRED were each cultured separately overnight in LB medium supplemented with the appropriate antibiotic. P. aeruginosa PAO1, S. typhimurium MET708 and E. coli W3110 pCT6 dsRED were diluted (25 μL:2.5 μL:100 μL) of the overnight culture respectively, into a single 2 mL final volume of fresh LB medium without antibiotics. […] The S. typhimurium lacZ (β-galactosidase) activity was measured after 4 h. The E. coli response was determined after 24 h, by fixing the cells with 1:1 cold 4% paraformaldehyde and using flow cytometric analysis. Samples were analyzed by flow cytometry (FACS Canto II, BD 394 Biosciences), with 30,000 gated events analyzed per sample. […]

[1] = system: pre-formed E. coli biofilms (K-12 MG1655); experiment: Effects on pre-formed E. coli biofilms (microfluidic flow cell, COMSTAT, optical density); format: cell-based
Description: The E. coli biofilms were formed using the strain K-12 MG1655 ATCC(47076). P. aeruginosa biofilms were formed using wild type strain PAO1. For both strains, overnight cultures were diluted to an OD600 of 0.25, introduced into the microfluidic channel, and incubated with no flow at 37° C. for 2 h. LB (Luria Bertani) growth medium was then continuously flowed into the device at a rate of 10 μL/hr. As needed, this medium was supplemented with various concentrations of analog or antibiotic at specified times. In studies of biofilm inhibition, after 2 hours of cell incubation, the analog diluted in LB medium is flown into the microfluidic channel for 48 hours at 10 μL/hr. In studies of effects on pre-formed biofilms, LB is introduced over the cells at 10 μL/hr for a period of 36 to 48 hours to yield stable biofilms. Then, the analog or analog-antibiotic combination was introduced for an additional 36 to 48 hours.
Biofilms were stained in situ for microscopy. They were first treated with a Live/Dead bacterial labeling kit (Invitrogen #L7012) in which two labeling components were mixed in a 1:1 ratio to a final volume of 10 μL. The dye was introduced into the channel at 10 μL/hr, the same flow rate as during biofilm growth. This treatment was then followed by 10 μL/hr of a 100 μg/mL calcofluor (Fluorescence Brightener 28, Sigma #F3543) solution for labeling polysaccharides contained in the biofilm matrix. The dyes are fixed by flowing in 3% paraformaldehyde at the same flow rate.
Labeled samples are imaged using a confocal microscope (Zeiss LSM710). For unpatterned coverslips, Z-stacks were obtained at 7 points in each microfluidic channel, each stack was comprised of 150 slices. For patterned coverslips used while measuring the optical density of the biofilms, two stacks were obtained in each channel (i.e. one at each pinhole). The image stacks were analyzed using COMSTAT, which provides morphological characteristics. Average biofilm thickness and biomass were averaged over the image stacks obtained at each of these 7 data points in the microfluidic channel. Additionally, surface reconstructions of the biofilms were created using Imaris (Bitplane) to aid in visualization of the resulting structures.
The data corresponding to the change in optical density of the biofilms were obtained from the photodiodes using the standard methodologies. Data for each channel (the average of the response of the two photodiodes) was normalized with respect to the optical density at 48 hours; this method reflects that as of 48 hours, the biofilms have been grown under identical conditions although their optical density values may not be identical. Additionally, since the optical density data itself fluctuates as the biofilm grows, the data for each curve was fitted using a Churchill model (Churchill et al, 1972), represented by log N=[f1^−1+f2^−1]^−1 (1)

[2] = 100 μM isobutyl-DPD combined with gentamicin 5 μg/ml

Compound | QS inhibition in P. aeruginosa (pyocyanin production) (P. aeruginosa PAO1) | average biofilm thickness ([1]; 40 μM isobutyl-DPD combined with gentamicin 5 μg/ml) [μm] | average biofilm thickness [1, 2] [μm] | effect on biofilm biomass, in words [1, 2] | reduction in biofilm thickness [1, 2] | course of biofilm optical density after 48 h, in words ([1]; isobutyl-DPD combined with gentamicin, continuous optical density measurement)
O=C(C(=O)C(O)CO)c1ccccc1 (stereo not drawn) [Phenyl-DPD, Phenyl DPD] | retained some activity | – | – | – | – | –
CC(C)CC(=O)C(=O)[C@@H](O)CO [Isobutyl-DPD, isobutyl-DPD] | – | 6 | 2 | nearly complete removal of biomass | more than 80% | reversed biofilm growth
